Data set [1] concerns MCA205 mouse sarcoma cell line. The data set is described as follows: MTT assay on MCA205 cell line. The data set is classed as cell-based. To be noted: MCA205 WT cells, 15 μM or 35 μM. The protocol: (§1) RNA was extracted and qRT-PCR was performed with primers amplifying the unspliced (intron) and the spliced (exon) globin-SL8-intron RNA. Data are given as mean ±SEM of the ratio of 2^−ΔΔCt intron and 2^−ΔΔCt exon of at least three independent experiments. […] Data are express as mean ±SEM of the percentage of viable cells compared to the control condition of at least three independent experiments. *P<0.05, **P<0.01, ***P<0.001 (unpaired student t test).
(§2) MCA205 mouse sarcoma cell line is cultured at 37° C. under 5% CO2 in RPMI 1640 medium (Life Technologies) in the presence of 1% glutamine, 1% sodium pyruvate, 1% non-essential amino-acids, 1% penicillin/streptomycin and 10% FBS (Life Technologies) under standard conditions. B16F10 mouse melanoma cell line, MRC5 human fibroblast cell line and A375 human melanoma cell line are cultured at 37° C. under 5% CO2 in DMEM medium (Life Technologies) containing 1% glutamine, 1% penicillin/streptomycin and 10% FCS under standard conditions. A549 human lung carcinoma cell line is cultured at 37° C. under 5% CO2 in DMEM/F12+Glutamax I in the presence of 1% Hepes, 1% sodium pyruvate and 10% FBS under standard conditions. Stable MCA205-Globin-SL8-intron cell line are cultured under the same condition as MCA205 cell line with additional 2 mg/ml G418 (geneticin from Life Technologies) for selection. Stable B16F10-Globin-SL8-intron cell line are cultured under the same condition as B16F10 cell line with additional 2 mg/ml G418 (geneticin from Life Technologies) for selection. The SL8/Kb-specific (B3Z) T-cell reporter hybridoma are cultured at 37° C. under 5% CO2 in RPMI 1640 medium (Life Technologies) in the presence of 1% glutamine, 0.1% β-galactosidase, 1% penicillin/streptomycin and 10% FCS under standard conditions.
(§3) MTT assay on MCA205 and B16F10 cell lines treated with 6.25 μM, 15 μM or 25 μM of isoginkgetin. Dare are given as the mean of the percentage of cell viability ±SEM from at least three independent experiments.
A general note: Tetrazolium dyes change colour on reduction, which living cells bring about.

The test system of the next data set is B16F10 WT tumor. The data set is described as follows: Tumor challenge, B16F10 WT in immunocompetent C57BL/6 mice. The data set is classed as in vivo, mouse. To be noted: 18 mg/kg intraperitoneally, days 5, 10 and 15 (FIG. 11D). The protocol: (§4) (A) Experimental settings. Growth of (B) sarcoma MCA205 or (C) melanoma B16F10 cells that both stably express the globin-SL8-intron construct or (D) MCA205 Wild Type (WT) or (E) B16F10 WT cells that were subcutaneously inoculated on the flank of immunocompetent C57BL/6 mice injected intraperitoneally with 12 mg/kg or 18 mg/kg of isoginkgetin at days 5, 10 and 15 after inoculation. Tumor size was assessed every 3 to 4 days until reaching the established ethical endpoints. Each line represents the tumor size in area (mm^2) of 6 mice in each group. Size in area (mm^2) of (F) MCA205 globin-SL8-intron, (G) B16F10 globin-SL8-intron, (H) MCA205 WT or (I) B16F10 WT tumors subcutaneously inoculated on the flank of immunodeficient Nu/Nu Nude mice injected intraperitoneally with 18 mg/kg of isoginkgetin at days 5, 10 and 15 after inoculation. Data are presented at the day before the endpoints are reached.
(§5) Data are given as mean ±SEM. *P<0.05, **P<0.01, ***P<0.001 (unpaired student t test). […] Tumor size was assessed every 3 to 4 days until reaching the established ethical endpoints. […]
The SL8 peptide has been widely shown to be highly immunogenic in vivo. […] At days 5, 10 and 15 after tumor inoculation, the mice were injected intraperitoneally with a define dose of isoginkgetin, and the tumor growth was monitored (FIG. 9A). […]

The test system of data set [2] is B16F10 globin-SL8-intron (B16F10 GI) tumor. The data set is described as follows: Tumor challenge, B16F10 globin-SL8-intron in immunocompetent C57BL/6 mice. Format: in vivo, mouse. To be noted: 18 mg/kg intraperitoneally, days 5, 10 and 15. As for the experimental part:
as §4, §5
C57B1/6J female mice are obtained from Harlan. […] Area of the tumor is recorded every 3 to 4 days until day 27. […] Results are expressed as mean ±SEM. *p<0.05, **P<0.01, ***P<0.001 (ANOVA with Tukey's multiple comparison test comparing all groups).

A short description of data set [3]: MTT assay on MCA205 cell line. Format: cell-based, mouse. Particulars: mouse, MCA205 sarcoma cells, MTT, read-out: % cell viability (±SEM). The protocol:
as §1, §2, §3

Take `COc1ccc(-c2cc(=O)c3c(OC)cc(OP(=O)([O-])[O-])c(-c4cc(-c5cc(=O)c6c(OC)cc(OP(=O)([O-])[O-])cc6o5)ccc4OC)c3o2)cc1.[Na+].[Na+].[Na+].[Na+]` [IM2P2]: in data set [1], the “toxicity (MTT, percentage of viable cells compared to control)” value is on record as “no toxicity”. The tumor growth result with B16F10 WT tumor is on record as “did not impact tumor growth”; in data set [2], “had no effect on growth”.

Regarding `COc1ccc(-c2cc(=O)c3c(O)cc(O)c(-c4cc(-c5cc(=O)c6c(O)cc(O)cc6o5)ccc4OC)c3o2)cc1` [Isoginkgetin, isoginkgetin], in data set [3] (MCA205, 6.25 μM), the viability (usually the share of living cells, or the viability signal relative to a control) at 6.25 µM is 84.8%. Besides, the viability at 15 µM in data set [3] (MCA205, 15 μM) was found to be 56.3%. Also, the viability at 25 µM in data set [3] (MCA205, 25 μM) came to 51.7%.

For the origin of these results see patent US11110105B2, “Compounds, composition and uses thereof for treating cancer” (INSTITUT GUSTAVE ROUSSY, priority 2017, dated 2021).
